Test results: patent publication US20040121474A1, “Detection and evaluation of chemically-mediated and ligand-mediated t-cell activation using optophoretic analysis” (Genoptix, Inc, priority 2002, published 2004)

Columns and labels:
U937 cells = experiment: Escape velocity, effect of camptothecin on U937 cells; type: cell-based; conditions: camptothecin-treated U937 cells
Description: The objective of this experiment is to test the effects of camptothecin on the escape velocities of U937 cells. Camptothecin inhibits DNA topoisomerase I and induces apoptosis. A control and three concentrations of camptothecin were tested: […]. After adding the camptothecin, the flasks are incubated at 37° C. 5% CO2.
At the timepoints of 4 hours and 6 hours, 200 μl of cells are spun for 5 minutes at 5000 rpm. The cells are then resuspended in […] PBS/1% BSA and […] trypan blue.
Optophoretic techniques have been investigated for their potential to detect the early onset of apoptosis in mammalian cells. U.S. patent application Ser. No. 10,240,611, for example, discloses multiple experiments in which U937 cells were treated with camptothecin and subsequently monitored Optophoretically using measured escape velocities. In one experiment, the escape velocity of the camptothecin-treated cells were measured at 4 and 6 hours after treatment. Noticeable changes in escape velocity were seen as early as 4 hours after treatment (see, e.g., FIG. 34). In that experiment, U937 cells were treated with 4 μg/ml of camptothecin and resuspended in PBS/1% BSA. Escape velocity measurements were taken after 4 and 6 hours. Table 18, reproduced below, includes the results of the escape velocity measurements for the test cells as well as the controls.

CEM/C2 = CEM/C2 cell line obtained from ATCC; cited from earlier work

In the case of CC[C@@]1(O)C(=O)OCc2c1cc1n(c2=O)Cc2cc3ccccc3nc2-1 [Camptothecin], the “time after treatment at which noticeable changes in escape velocity were seen” value (U937 cells) is listed as at most 4 h and the “less sensitive than parental cell line CCRF-CEM” value (CEM/C2) is listed as 970 fold.
